In patent US20130072468A1, “SUBSTITUTED PIPERAZINES AS CB1 ANTAGONISTS” (priority 2011, published 2013):

What follows are compounds tested against T1, cannabinoid CB1 (Homo sapiens, UniProt P21554) (assay: Competition binding assay for cannabinoid CB1 affinity (3H-CP55,940 displacement, membranes)). Conditions: competition binding vs 0.5 nM 3H-CP55,940; Ki by Cheng-Prusoff; read-out: Ki values in the assay described above.
T1 construct: purchased
Method: Method for Evaluating Cannabinoid CB1 and CB affinity
Competition binding assays for cannabinoid CB1 and CB2 affinity were performed by incubating commercially purchased membranes prepared from cells expressing each receptor subtype (8 μg pro) with 0.5 nM ^3H-CP55,940, a non-selective cannabinoid agonist, along with concentrations of drug ranging from 0.0001-3 μM in Buffer A (5 mM MgCl2, 2.5 mM EDTA and […] BSA). Non-specific binding was defined in the presence of 10 μM CP55,940. For saturation studies, concentrations of ^3H-CP55,940 ranging from 0.1-5 nM were incubated with membranes in the presence and absence of 10 μM CP55,940. Assays were terminated after incubation for 1½ hours by rapid filtration onto 0.3 polyethylenamine treated GF/C filterplates using a BRANDEL cell harvester. The plates were dried and MICROSCINT scintillation cocktail was added, after which the bound radioactivity was quantified using a TOPCOUNT scintillation counter.
The dissociation constant (Kd) of ^3H-CP55,940 at the CB1 and CB2 receptor were determined by plotting specific binding at each concentration of radioligand, and analysis by non-linear regression. For competition studies, the concentration of each drug that inhibited 50 percent of ^3H-CP55,940 binding (IC50) was determined by non-linear regression analysis of the radioligand displacement curves. Affinity constants (Ki) were calculated using the equation derived by Cheng and Prusoff (1973), defined as: IC50/1+[conc. ligand/Kd].

T1 sequence (P21554 whole entry): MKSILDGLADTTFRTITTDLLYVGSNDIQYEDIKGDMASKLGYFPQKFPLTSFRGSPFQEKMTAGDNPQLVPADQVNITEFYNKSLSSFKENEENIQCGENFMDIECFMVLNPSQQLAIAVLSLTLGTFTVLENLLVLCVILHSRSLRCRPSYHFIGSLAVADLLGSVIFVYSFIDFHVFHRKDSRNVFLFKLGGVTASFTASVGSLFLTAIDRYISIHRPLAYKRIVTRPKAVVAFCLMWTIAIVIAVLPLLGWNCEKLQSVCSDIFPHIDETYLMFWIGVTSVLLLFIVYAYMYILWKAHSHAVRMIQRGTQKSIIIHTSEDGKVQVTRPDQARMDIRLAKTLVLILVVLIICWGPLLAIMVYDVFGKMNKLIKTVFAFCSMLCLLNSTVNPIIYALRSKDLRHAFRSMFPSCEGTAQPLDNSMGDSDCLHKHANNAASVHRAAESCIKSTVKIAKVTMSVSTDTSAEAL

| Compound | Ki [nM] |
| --- | --- |
| N#Cc1ccc(N2CCNC[C@H]2c2ccc(Cl)cc2)nc1 [Example 826b] | ≥ 900 |
| COc1ccc(N2CCNC[C@H]2c2ccc(Cl)cc2)c(F)c1 [Example 822] | ≥ 900 |
| COc1ccc(N2CCNC[C@H]2c2ccc(F)cc2)c(C#N)c1 [Example 826e] | ≥ 900 |
| CC(C)(C)CCN1CCC(C(C)(O)CN2CCN(c3ccc(Cl)cc3Cl)[C@H](c3ccc(Cl)cc3)C2)CC1 (some centres unmarked) [Example 1089] | ~873 |
| COc1cccc([C@@H]2CNCCN2c2ccc(C#N)cc2Cl)c1 [Example 813b] | ≥ 900 |
| COC(=O)c1ccc(N2CCN(Cc3ccccc3)C[C@H]2c2ccc(Cl)cc2)cc1 [Example 817] | ≥ 900 |
| CC(C)(C)OC(=O)N[C@@H](C(=O)N1CCN(c2ccc(Cl)cc2Cl)[C@H](c2ccc(Cl)cc2)C1)c1ccc(Cl)cc1 [Example 1167a] | ≥ 900 |
| C[C@@](O)(CN1CCN(c2ccc(C#N)cc2Cl)[C@H](c2ccc(Cl)cc2)C1)c1cc(F)cc(F)c1 [Example 949] | 0.2 to 100 |
| O=C1CN(Cc2ccccc2)C[C@@H](c2ccc(Cl)cc2)N1c1ccc(O)cc1 [Example 831] | ≥ 900 |
| C[C@@](O)(CN1CCN(c2ccc(Cl)cc2Cl)[C@H](c2ccc(Cl)cc2)C1)c1ccc(N)nc1 [Example 1037] | 0.2 to 100 |

Other lines, results leading:

| Ki [nM] | Compound |
| --- | --- |
| ≥ 900 | OCc1ccc(N2CCN(Cc3ccccc3)C[C@H]2c2ccc(Cl)cc2)cc1 [Example 824] |
| ≥ 900 | CC(O)(CN1CCN(c2ccc(Cl)cc2Cl)[C@H](c2ccc(Cl)cc2)C1)C(=O)O (some centres unmarked) [Example 877b] |
| 0.2 to 100 | C[C@@](O)(CN1CCN(c2ccc(Cl)cc2Cl)[C@H](c2ccc(Cl)cc2)C1)c1ccc(Cl)cc1 [Example 930] |
| ≥ 900 | N#Cc1cccnc1N1CCNC[C@H]1c1ccc(Cl)cc1 [Example 826d] |
| ≥ 900 | COc1ccc(N2CCN(Cc3ccccc3)C[C@H]2c2ccc(Cl)cc2)c(Cl)c1 [Example 807] |
| ≥ 900 | O=C1CN(Cc2ccccc2)C[C@@H](c2ccc(Cl)cc2)N1c1ccc(O)cc1Cl [Example 830] |
| 0.2 to 100 | CC(O)(CN1CCN(c2ccc(Cl)cc2Cl)[C@H](c2ccc(Cl)cc2)C1)C1CCN(S(=O)(=O)C2CC2)CC1 (some centres unmarked) [Example 1091] |
